What follows are compounds tested on Plasmodium berghei (assay: Antimalarial activity against Plasmodium berghei).
Assay type: functional

SMILES	log(1/C)
OC(CNC1CCCC1)c1cc(-c2ccccc2)nc2c(Cl)cc(Cl)cc12 (stereo not drawn)	2.54
CCCCN(CCCC)CC(O)c1cccc2c1cc(Cl)c1ccccc12 (stereo not drawn)	2.26
CCCCCCCN(CCCCCCC)CC(O)c1cc(-c2ccc(Cl)cc2)cc2ccc(OC)cc12 (stereo not drawn)	4.18
OC(CC1CCCCN1)c1cc2cc(C(F)(F)F)cc(C(F)(F)F)c2c2cc(Cl)c(Cl)cc12 (stereo not drawn)	4.47
CCN(CC)CC(O)c1cc(Cl)cc2ccc(-c3ccc(Cl)cc3)nc12 (stereo not drawn)	2.12
CCC(CC)NCC(O)c1cc2ccc(C(F)(F)F)cc2c2cc(C(F)(F)F)ccc12 (stereo not drawn)	4.2
OC(CC1CCCCN1)c1cc2c(Cl)c(Cl)ccc2c2cc(C(F)(F)F)ccc12 (stereo not drawn)	4.45
CCCCNCC(O)c1cc2ccc(C(F)(F)F)cc2c2ccsc12 (stereo not drawn)	2.51
CS(=O)(=O)c1ccc2cc(C(O)CC3CCCCN3)c3ccc(C(F)(F)F)cc3c2c1 (stereo not drawn)	3.32
CCCCCCCN(CCCCCCC)CC(O)c1cc(-c2ccc(Cl)cc2)nc(-c2ccc(Cl)cc2)c1 (stereo not drawn)	2.67
CCCCCN(CCCCC)CC(O)c1cccc2c1cc(Cl)c1ccccc12 (stereo not drawn)	2.14
CC(C)(C)NCC(O)c1cc(C(F)(F)F)nc2c(C(F)(F)F)cccc12 (stereo not drawn)	2.64
CCCCN(CCCC)CC(O)c1cccc2cc3ccccc3cc12 (stereo not drawn)	2.27
CCCCN(CCCC)CC(O)c1cc2cccc(Br)c2c2cc(C(F)(F)F)ccc12 (stereo not drawn)	3.52
CCCCN(CCCC)CC(O)c1cccc2cc3c(Cl)cccc3cc12 (stereo not drawn)	2.1
CCCCCCN(CCCCCC)CC(O)c1cc(-c2ccc(OC)cc2)nc2c(Cl)cc(OC)cc12 (stereo not drawn)	3.15
CCCCCCCN(CCCCCCC)CC(O)c1cc2ccsc2c2cc(Br)ccc12 (stereo not drawn)	2.68
CCCCCCCCN(CCCCCCCC)CC(O)c1cc2ccccc2c2ccccc12 (stereo not drawn)	2.54
CCCCN(CCCC)CC(O)c1cc2ccc(Br)cc2c2cc(C)sc12 (stereo not drawn)	2.44
CCCCCCCN(CCCCCCC)CC(O)c1cc(-c2ccc(F)cc2)nc(-c2ccc(F)cc2)c1 (stereo not drawn)	2.55
CCCCNCC(O)c1cc2c(Cl)cc(Cl)cc2c2cc(C(F)(F)F)ccc12 (stereo not drawn)	4.48

SMILES	log(1/C)
CCCCCCCN(CCCCCCC)CC(O)c1cc2ccc(C(F)(F)F)cc2c2cc(Cl)ccc12 (stereo not drawn)	2.9
CCCCNCC(O)c1cc(-c2ccc(Cl)cc2)cc2cc(Cl)ccc12 (stereo not drawn)	3.29
CCCCN(CCCC)CC(O)c1cc2ccccc2c2c(Cl)cccc12 (stereo not drawn)	2.77
CCCCN(CCCC)CC(O)c1cc2ccc(Br)cc2c2cc(Br)ccc12 (stereo not drawn)	3.63
CCCCN(CCCC)CC(O)c1cc2ccc(C(F)(F)F)cc2c2ccccc12 (stereo not drawn)	2.8
CCCCCCCN(CCCCCCC)CC(O)c1c2ccccc2c(Cl)c2ccccc12 (stereo not drawn)	3.7
COc1ccc(-c2cc(C(O)CC3CCCCN3)c3cccc(C)c3n2)cc1 (stereo not drawn)	3.18
OC(CC1CCCCN1)c1cc2ccc(C(F)(F)F)cc2c2cc(Cl)c(Cl)cc12 (stereo not drawn)	4.02
CCCCN(CCCC)CC(O)c1cc(Cl)nc2ccccc12 (stereo not drawn)	2.14
CCCCCN(CCCCC)CC(O)c1cc2ccc(Cl)c(Cl)c2c2cc(C(F)(F)F)ccc12 (stereo not drawn)	4.26
CCCC[N+]([O-])(CCCC)CC(O)c1cc(-c2ccc(Cl)c(Cl)c2)nc(-c2ccc(Cl)c(Cl)c2)c1 (stereo not drawn)	2.72
OC(CNC1CCCCC1)c1cc2ccc(Cl)cc2c2cc(Cl)ccc12 (stereo not drawn)	3.36
CN1CCCCC1CC(O)c1cc(-c2ccccc2)nc2ccc(Cl)cc12 (stereo not drawn)	2.7
CCCCN(CCCC)CC(O)c1cc(C(=O)c2cccc(C(F)(F)F)c2)nc2c(C(F)(F)F)cc(Cl)cc12 (stereo not drawn)	4.52
OC(CC1CCCCN1)c1cc(-c2ccccc2)nc2c(Cl)cc(Cl)cc12 (stereo not drawn)	3.9
CCN(CC)CCC(O)c1cc2ccc(C(F)(F)F)cc2c2cc(C(F)(F)F)ccc12 (stereo not drawn)	4.12
OC(CC1CCCCN1)c1cc2cc(C(F)(F)F)cc(C(F)(F)F)c2c2ccccc12 (stereo not drawn)	4.19
CCCCNCC(O)c1cc(C(F)(F)F)nc2c(C(F)(F)F)cccc12 (stereo not drawn)	3.65
Cc1ccc2cc(C(O)CC3CCCCN3)c3ccc(C(F)(F)F)cc3c2c1 (stereo not drawn)	3.16
CCCCCN(CCCCC)CC(O)c1ccc(Br)c2ccccc12 (stereo not drawn)	2.16
Cc1cc(C)c2cc(C(O)CC3CCCCN3)c3ccc(C(F)(F)F)cc3c2c1 (stereo not drawn)	3.25

SMILES	log(1/C)
CCCCN(CCCC)CC(O)c1cc2ccc(C(F)(F)F)cc2c2cc(Cl)ccc12 (stereo not drawn)	3.88
CCCCCCN(CCCCCC)CC(O)c1cc(-c2ccc(Cl)cc2)nc2cc(Cl)c(OC)cc12 (stereo not drawn)	3.07
CCCCNCC(O)c1cc(-c2ccc(Br)cc2)nc(-c2ccc(C(F)(F)F)cc2)c1 (stereo not drawn)	3.94
CCCCN(CCCC)CC(O)c1cc(-c2ccc(Br)cc2)nc(-c2ccc(Br)cc2)c1 (stereo not drawn)	3.31
CCCCCCN(CCCCCC)CC(O)c1cc(-c2ccc(OC)cc2)nc2cc(Cl)c(OC)cc12 (stereo not drawn)	3.38
CCN(CC)CC(O)c1cc(-c2ccccc2)nc2ccc(OC)cc12 (stereo not drawn)	2.44
CCCC[N+]([O-])(CCCC)CC(O)c1cc(-c2ccc(Cl)cc2)nc(-c2ccc(Cl)cc2)c1 (stereo not drawn)	3.57
CCCCCCN(CCCCCC)CC(O)c1cc2ccc(Br)cc2c2cc(Br)ccc12 (stereo not drawn)	3.51
CCCCCCCN(CCCCCCC)CC(O)c1ccc2cc3ccccc3cc2c1 (stereo not drawn)	2.62
CCCCN(CCCC)CC(O)c1cc(-c2ccc(Cl)c(Cl)c2)nc(-c2ccc(Cl)c(Cl)c2)c1 (stereo not drawn)	2.63
CCCCCCCN(CCCCCCC)CC(O)c1cccc2c1cc(Cl)c1ccc(Cl)cc12 (stereo not drawn)	2.96
CCCCN(CCCC)CC(O)c1cc(-c2ccc(Cl)cc2)nc(-c2ccc(Br)cc2)c1 (stereo not drawn)	3.36
CN1CCN(CC(O)c2cc(-c3ccc(Cl)cc3)nc3cc(Cl)ccc23)CC1 (stereo not drawn)	2.66
CCCCN(CCCC)CC(O)c1cc2cc(Cl)ccc2c2c(Cl)cc(Cl)cc12 (stereo not drawn)	3.91
OC(CC1CCCCN1)c1cc2c(Cl)c(Cl)c(Cl)c(Cl)c2c2cc(C(F)(F)F)ccc12 (stereo not drawn)	4.75
CCCCCCCN(CCCCCCC)CC(O)c1cccc2c1ccc1ccc(Cl)cc12 (stereo not drawn)	2.54
CC(C)N(C)CC(O)c1cc(-c2ccc(Cl)cc2)nc2c(Cl)cc(Cl)cc12 (stereo not drawn)	3.72
CCCCCCN(CCCCCC)CC(O)c1cc(-c2ccc(Cl)c(Cl)c2)nc2cc(OC)ccc12 (stereo not drawn)	3.1
CCCCN(CCCC)CCC(O)c1cc2c(Cl)cc(Cl)cc2c2cc(C(F)(F)F)ccc12 (stereo not drawn) [HALOFANTRINE]	4.47
CCCCN(CCCC)CC(O)c1cccc2c1cc(Br)c1ccccc12 (stereo not drawn)	2.15
CCCCN(CCCC)CC(O)c1c2ccccc2cc2ccccc12 (stereo not drawn)	2.35

Source: ChEMBL document CHEMBL3227967, “Quantitative structure-activity relationships in 1-aryl-2-(alkylamino)ethanol antimalarials” (J Med Chem, 1979)
